{"source": "PubChem BioAssay AID1959", "about": "(Broad Institute, 2009)", "note": "Calls of active or inactive are those of the source.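 Rule for the calls: active = growth-inhibition EC50 no more than tenfold above the top tested dose; inconclusive = flat fit between 30% and 70% inhibition, or unreliable fit; inactive = EC50 more than tenfold above the top tested dose.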", "data": [{"tested_on": "E. coli NEB5alpha growth, BacTiter-Glo luminescence, 4 h", "experiment": "antibacterial activity against E. coli NEB5alpha – luminescence, counter-screen for MEX-5/POS-1 RNA-binding inhibitor project, dose response (AID 1959);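 note: pUC19-transformed ampicillin-resistant cells grown in LB with ampicillin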", "values": [{"smiles": "Cc1cc(N2C(=O)C(O)=C(C(=O)c3cc4ccccc4o3)C2c2ccc([N+](=O)[O-])cc2)no1", "note": "(stereo not drawn)", "EC50": "> 11 µM (inactive)"}, {"smiles": "Cc1ccccc1C1=N/C(=C/c2cccs2)C(=O)O1", "EC50": "> 11 µM (inactive)"}, {"smiles": "CCN(CC)C(=O)CSc1nnc2nnc3cc(Cl)ccc3n12", "EC50": "> 11 µM (inactive)"}, {"smiles": "O=C1C2CC=C(Cl)CC2C(=O)N1CCc1ccccc1", "note": "(stereo not drawn)", "EC50": "> 11 µM (inactive)"}, {"smiles": "Cc1c(Cl)cccc1N1C(=O)NC(=O)/C(=C\\c2cc(C)n(-c3cccc(C(=O)O)c3C)c2C)C1=O", "EC50": "> 11 µM (inactive)"}, {"smiles": "COC(=O)c1cccc(-n2c(CCC(=O)O)ccc2-c2cccs2)c1", "EC50": "> 11 µM (inactive)"}, {"smiles": "CC1(C)CC(=O)C2=C(C1)OC(N)=C(C#N)C2c1cc2c(cc1[N+](=O)[O-])OCO2", "note": "(stereo not drawn)", "EC50": "> 11 µM (inactive)"}, {"smiles": "COc1c(O)cccc1[C@@H](O)C1CCN(CCc2ccc(F)cc2)CC1", "EC50": "> 11 µM (inactive)"}, {"smiles": "Cc1cc2c3c(c1)C(C)CC(C)(C)N3C(=O)C2=O", "note": "(stereo not drawn)", "EC50": "> 11 µM (inactive)"}, {"smiles": "CCCC(C)NC(=O)c1ccc(C2SCC(=O)N2Cc2ccco2)cc1", "note": "(stereo not drawn)", "EC50": "> 11 µM (inactive)"}, {"smiles": "OCCCNc1ncnc2sc3c(c12)CCN(Cc1ccccc1)C3", "EC50": "> 11 µM (inactive)"}, {"smiles": "COc1ccc(NC(=O)CCl)cn1", "EC50": "> 11 µM (inactive)"}, {"smiles": "O=C(Nc1ccc(Br)cn1)c1ccc2nccnc2c1", "EC50": "> 11 µM (inactive)"}, {"smiles": "CCCNc1c(F)c(F)c2c(C)c3ccccc3nc2c1F", "EC50": "> 11 µM (inactive)"}, {"smiles": "CN1CC=C2C(C#N)=C(N)C(C#N)(C#N)C(c3cccc(Cl)c3Cl)C2C1", "note": "(stereo not drawn)", "EC50": "> 11 µM (inactive)"}, {"smiles": "CCCCCN1C=CC=C/C1=C\\C=C(C#N)C#N", "EC50": "> 11 µM (inactive)"}, {"smiles": "Nc1c(C(=O)c2ccc(Cl)cc2)sc2nsc(SCCN3CCOCC3)c12", "EC50": "> 11 µM (inactive)"}, {"smiles": "CCCc1c(O)nc(SCC(=O)N2CCCCC2)[nH]c1=O", "EC50": "> 11 µM (inactive)"}, {"smiles": "O=S(=O)(NNC(=S)Nc1ccc(S(=O)(=O)Nc2ncccn2)cc1)c1ccc(Br)cc1", "EC50": "> 11 µM (inactive)"}, {"smiles": "COc1ccc(OC)c(S(=O)(=O)NC2CCN(Cc3ccccc3)CC2)c1", "EC50": "> 11 µM (inactive)"}, {"smiles": "C[C@@H]1O[C@@H](Oc2c(-c3cc(O)c(O)c(O)c3)oc3cc(O)cc(O)c3c2=O)[C@H](O)[C@H](O)[C@H]1O", "EC50": "> 11 µM (inactive)"}, {"smiles": "O=C(/C=C/c1ccc([N+](=O)[O-])o1)NNC(=O)c1ccc(F)cc1", "EC50": "0.232 µM"}, {"smiles": "Cc1ccc(S(=O)(=O)Nc2ccccc2F)cc1C(=O)NNC(=O)c1csc(N2CCOCC2)n1", "EC50": "> 11 µM (inactive)"}, {"smiles": "COc1cc(/C=C2/N=C(c3ccccc3)OC2=O)c(F)cc1OCc1ccccc1", "EC50": "> 11 µM (inactive)"}, {"smiles": "O=C(NNC(=O)c1ccc2ccccc2c1O)c1ccccc1Cl", "EC50": "> 11 µM (inactive)"}, {"smiles": "Cc1ccccc1CSCCNC(=S)Nc1ccccc1", "EC50": "> 11 µM (inactive)"}, {"smiles": "CCOC(=O)c1cnc(-n2nc(C)cc2C)nc1NNc1nc(C)cc(C)n1", "EC50": "> 11 µM (inactive)"}, {"smiles": "CC(=O)N(C)c1ccc(N=Nc2c(C)[nH]n(C(N)=S)c2=O)cc1", "EC50": "> 11 µM (inactive)"}, {"smiles": "Cc1ccc(S(=O)(=O)C(C#N)c2nc3ccccc3nc2N2CC(C)OC(C)C2)cc1C", "note": "(stereo not drawn)", "EC50": "> 11 µM (inactive)"}, {"smiles": "CCOC(=O)N1CCN(C2=Nc3cccc4cccc2c34)CC1", "EC50": "> 11 µM (inactive)"}, {"smiles": "COc1ccc(C2OC34CCCCC3C(C#N)(C#N)C2(C#N)C(=N)O4)cc1", "note": "(stereo not drawn)", "EC50": "> 11 µM (inactive)"}, {"smiles": "O=C(/C=C/c1ccco1)NC(=S)Nc1cccc(C(=O)O)c1", "EC50": "> 11 µM (inactive)"}, {"smiles": "COc1ccc(-n2c(O)c(/C=C3\\C=Nc4ccc(Br)cc43)c(=O)[nH]c2=O)c(OC)c1", "EC50": "> 11 µM (inactive)"}, {"smiles": "CCOCCCn1c(=NC(C)=O)c(C#N)cc2c(=O)n3ccccc3nc21", "EC50": "> 11 µM (inactive)"}, {"smiles": "O=[N+]([O-])c1cc(-c2ccc([As](=O)(O)O)cc2)ccc1[As](=O)(O)O", "EC50": "> 11 µM (inactive)"}, {"smiles": "CC(=O)Nc1ccc(NC(=O)C(C)OC(=O)/C(C#N)=C/c2ccc(N(C)C)cc2)cc1", "note": "(stereo not drawn)", "EC50": "> 11 µM (inactive)"}, {"smiles": "Cc1c(C(=O)O)cccc1-n1c(C)cc(/C=N/NC(=O)c2cc3ccccc3o2)c1C", "EC50": "> 11 µM (inactive)"}, {"smiles": "CN1C(=O)C(=Cc2ccc(N3CCCCC3)o2)C(=O)N(C)C1=S", "EC50": "> 11 µM (inactive)"}, {"smiles": "COc1ccc(-n2cc(CNCc3cnc4ccccn34)c(-c3cccc(F)c3)n2)cc1", "EC50": "> 11 µM (inactive)"}, {"smiles": "CCc1c(C(=O)NNC(=S)Nc2ccc(S(=O)(=O)Nc3ncccn3)cc2)csc1C", "EC50": "> 11 µM (inactive)"}, {"smiles": "O=c1[nH]c(=O)n(CCc2ccccc2)c(O)c1C=NCCCn1ccnc1", "EC50": "> 11 µM (inactive)"}, {"smiles": "CCCCc1ccc(NC(=O)CSC2=NN3CCCC(=O)N=C3S2)cc1", "EC50": "> 11 µM (inactive)"}, {"smiles": "Cc1ccc(-c2nnc(Nc3ccc(CC(N)=O)cc3)c3ccccc23)cc1S(N)(=O)=O", "EC50": "> 11 µM (inactive)"}, {"smiles": "c1ccc(-c2cn3nc4c(nc3n2)CCCC4)cc1", "EC50": "> 11 µM (inactive)"}, {"smiles": "O=C(N/N=C/c1ccc(-c2cccc([N+](=O)[O-])c2)o1)c1ccc([N+](=O)[O-])cc1", "EC50": "> 11 µM (inactive)"}, {"smiles": "Cc1cccc(/C=C(\\C(=O)C(=O)O)c2ccc3ccccc3n2)c1", "EC50": "> 11 µM (inactive)"}, {"smiles": "O=C1/C(=N\\S(=O)(=O)c2cccs2)C([n+]2ccc(CCCc3ccccc3)cc2)=C([O-])c2ccccc21", "EC50": "> 11 µM (inactive)"}, {"smiles": "O=C1NC(=S)/C(=C\\c2ccc(-c3ccccc3Cl)o2)S1", "EC50": "> 11 µM (inactive)"}, {"smiles": "Cc1ccc2cc(/C=C(\\C#N)C(N)=O)c(N3CCCCC3)nc2c1", "EC50": "> 11 µM (inactive)"}, {"smiles": "Cc1ccc(N/C=C/C(=O)c2sc(-c3ccccc3)nc2C)cc1", "EC50": "> 11 µM (inactive)"}, {"smiles": "O=C(/C=C/c1ccco1)NC(=S)NNC(=O)c1ccco1", "EC50": "> 11 µM (inactive)"}, {"smiles": "CC(C)N1CCc2c(sc(NC(=O)c3ccc4ccccc4c3)c2C(N)=O)C1", "EC50": "> 11 µM (inactive)"}, {"smiles": "CCC(=O)OC1(C)C(=O)C=C2C=C(c3ccc(C#N)cc3)OC=C2C1=O", "note": "(stereo not drawn)", "EC50": "> 11 µM (inactive)"}, {"smiles": "CN=C1S/C(=C\\c2ccc(O)c(OC)c2)C(=O)N1C", "EC50": "> 11 µM (inactive)"}, {"smiles": "CC(C)Cc1nn2c(N)c(/C=C3\\C=Nc4ccccc43)c(=O)nc2s1", "EC50": "> 11 µM (inactive)"}, {"smiles": "COc1cccc(C2C(C#N)=C(N)OC3=C2C(=O)CC(c2ccco2)C3)c1OCc1ccc(F)cc1", "note": "(stereo not drawn)", "EC50": "> 11 µM (inactive)"}, {"smiles": "Cn1c(=O)[nH]c(=O)c2c1nc(N/N=C/C(Br)=C/c1ccccc1)n2CCO", "EC50": "> 11 µM (inactive)"}, {"smiles": "COCCCn1c(N)c(-c2nc3ccccc3n2C)c2nc3ccccc3nc21", "EC50": "> 11 µM (inactive)"}, {"smiles": "COC(=O)c1ccc(-n2c(C)cc(/C=N/n3cnnc3)c2C)cc1", "EC50": "> 11 µM (inactive)"}, {"smiles": "CCOC(=O)N1CC=C2C(C#N)=C(N)C(C#N)(C#N)[C@H](c3ccsc3)[C@H]2C1", "EC50": "> 11 µM (inactive)"}, {"smiles": "Fc1ccc(CNc2nc(-c3ccccc3)nc3ccccc23)cc1", "EC50": "> 11 µM (inactive)"}, {"smiles": "CSc1nnc(N2C(=O)C(O)=C(C(=O)c3ccco3)C2c2ccc(F)cc2)s1", "note": "(stereo not drawn)", "EC50": "> 11 µM (inactive)"}, {"smiles": "Cc1cccc(Oc2nc(-c3ccccn3)nc3ccccc23)c1", "EC50": "> 11 µM (inactive)"}, {"smiles": "CCN(CC)C(=O)CSc1nnc2nnc3cc(OC)ccc3n12", "EC50": "> 11 µM (inactive)"}, {"smiles": "N#CCC(N)=C(C#N)C#N", "EC50": "> 11 µM (inactive)"}, {"smiles": "COc1ccccc1NC(=O)/C(C#N)=C/c1cc([N+](=O)[O-])ccc1N1CCCC1", "EC50": "> 11 µM (inactive)"}, {"smiles": "Oc1c(C=Nc2ccccc2Cl)[nH]c2ccccc12", "EC50": "> 11 µM (inactive)"}, {"smiles": "CCOc1cccc(C2C(C(=O)c3ccc(C)o3)=C(O)C(=O)N2c2nccs2)c1", "note": "(stereo not drawn)", "EC50": "> 11 µM (inactive)"}]}]}
